Test results reported in patent publication US20190054109A1, “An antiviral composition and a method for application thereof” (ALLA CHEM, LLC, priority 2017, published 2019).
Converted amounts (≈) assume the structure as drawn. Where two headings read alike, the source gives them in different places.

Legend:
[1] = Cytotoxicity in Huh7 cells (ATPLite kit); assay type: cell-based; details: human
Protocol: The cytotoxicity of tested compositions comprising the prodrug was evaluated concurrently in the same cell line Huh7 using an ATPLite kit (Perkin-Elmer, Boston, USA) in accordance with the manufacturer's instruction. The cell suspension in complete culture medium (DMEM 1×, Cellgro; cat. #10-013-CV) was transferred into 96-well plates with black walls and transparent bottoms (50 μl/well) with a final density of 7500 cells per well. Eighteen hours after planting the cells, serial compound dilutions (50 μl/well) were added. The plate with cells was incubated for 4 days at 37° C. in a humidified 5% CO2 atmosphere. The cells were then twice washed with PBS (200 μl/well) and lysed by adding a lytic buffer (50 μl/well); all reagents were taken from the ATPLite kit. Following a 5-minute stirring on a shaker, a substrate was added (50 μl/well). After an additional 5-minute incubation, the plate was kept for 10 minutes in the dark, and luminescence in the wells was measured using the multifunctional reader Victor^3 V 1420 (Perkin Elmer). The values of CC50 for tested compounds were measured from a cytotoxicity curve plotted using the GraphPad Prizm software.

[2] = test system: gT1b NS5B HCV; assay: Anti-HCV activity in Huh7 cell line stably transfected with an HCV replicon; assay type: cell-based, hepatitis C virus (HCV) genotype 1b
Protocol: Evaluation of anti-HCV activity and cytotoxicity for compositions comprising the prodrug of formula 1.1 and Sovaldi®. The antiviral activity of tested compositions comprising the prodrug was evaluated using an Huh7 human hepatocellular carcinoma cell line stably transfected with an HCV replicon. A cell suspension in a complete culture medium (DMEM 1×, Cellgro; cat. #10-013-CV) was transferred into 96-well plates (50 μl per well) with a final density of 7500 cells per well. The serial dilutions of tested prodrugs were prepared from a fresh 200-fold generic solution in DMSO with 11 concentration points and 3-fold dilution for each step starting from 20 nM in a complete medium and were used as 2-fold solutions in two replicates. Minimum 4 hours after planting the cells, 50 μl of serial prodrug dilutions was added to each well. The final prodrug concentration varied from 10 nM to 0.1 pM and that of DMSO, 0.5%. The plate with cells was incubated for 3 days at 37° C. under humidified 5% CO2. Upon completion of incubation, the medium was removed by turning the plate over and shaking it carefully. The cells were fixed for one minute with 100 μl of a 1:1 acetone:methanol solution, washed 3 times with a phosphate buffer (PBS), and blocked for 1 h at room temperature using a 10% fetal bovine serum (FBS) in PBS (150 μl/well). The cells were washed 3 times with PBS and incubated for 2 h at 37° C. with anti-NS5B HCV antibodies (100 μl/well) using Affinity BioReagents (cat. # MA1-080) and diluting the generic solution (1 mg/ml) in a ratio of 1:4000 in 10% FBS-PBS. The cells were washed 3 times with PBS and developed by an OPD solution (100 μl/well) using for each plate one OPD tablet dissolved in a citrate/phosphate buffer (12 ml)), whereto 5 μl of 30% H2O2 was added, for 30 minutes in the dark at room temperature. The reaction was stopped by 2N H2SO4 (100 μl/well), and OD490 was measured using the multifunctional reader Victor^3 V 1420 (Perkin Elmer). The values of EC50 for tested prodrugs were measured from an activity curve plotted using the GraphPad Prizm software.

[3] = Kinetic solubility (MultiScreen Solubility filter plate, UV); assay type: physicochemical; details: aqueous buffer with 2% DMSO, kinetic from dmso stock, 260 nm
Protocol: The tested compound was dissolved in DMSO to reach a 10-mM concentration and then poured into an aqueous solvent (a phosphate buffer, water, or universal buffers of different pH values) to bring the concentration down to 200 μM. The resulting solution placed in a 96-well filter plate (Millipore's MultiScreen Solubility Filter Plate) was incubated for an hour at room temperature on a shaker, and the residue was filtered off in vacuo. The absorption spectrum of the compound was recorded on a spectrophotometer in a range of 240-400 nm with a 10-nm increment. […] The range of estimated concentrations was 3-200 μM. The test procedure was performed in duplicate.
Six standard samples with concentrations of 0, 3.125, 12.5, 50, 100, and 200 μM were prepared in the wells of a UV 96-well plate by adding 4 μl of corresponding 50× stock solutions in DMSO to 196 μl of a buffer comprising 40% acetonitrile. The concentration of DMSO in all points was constant and equal to 2% (v/v).
To plot calibration curves, the optical spectrum of the UV plate was recorded in a wavelength range of 250 400 nm with a 10-nm increment. Based on the spectral data for each compound, wavelengths were selected to meet the following criteria:
For minimum compound concentration, OD>0.1 (AU);
For maximum compound concentration, OD<2.0.
For each compound, a calibration curve was plotted with OD at selected wavelength as a function of concentration.
Solubility was evaluated in a MultiScreen Solubility (Millipore Corp.) filter plate as follows:
Into each well of the MultiScreen Solubility filter plate, 196 μl of a buffer (without acetonitrile) and 4 μl of a 10-mM compound in DMSO or 4 μl of DMSO (for a blank matrix) were added. The plate was incubated for one hour on a shaker (400 rpm) at room temperature.
The resulting solutions were filtered off through the filter plate by means of vacuum (10″ Hg) into a polypropylene plate with a U-shaped bottom.
From the U-bottom plate, the filtrate (120 μl/well) was transferred into a new UV plate, where to acetonitrile (80 μl/well) was added.
The optical density of resulting solutions for a pre-selected wavelength was measured for each compound.
The final compound concentration in the filtrate was computed as follows:
Cfiltrate=(ODλFiltrate-ODλBlank)/Slope×1.67,

[4] = Hepatitis C virus, Huh-7, gT1b HCV replicon in Huh7, 10% FBS

C[C@H](N[P@](=O)(OC[C@H]1O[C@@H](n2ccc(=O)[nH]c2=O)[C@](C)(F)[C@@H]1O)Oc1ccccc1)C(=O)OC1CCC1 [Prodrug 1.1, cyclobutyl (S)-2-{(S)-[(2R,3R,4R,5R)-5-(3,4-dihydro-2,4-dioxo-2H-pyrimidin-1-yl)-3-hydroxy-4-methyl-4-fluoro-tetrahydro-furan-2-ylmethoxy]-phenoxy-phosphorylamino}-propanoate]
CC90 at 4 days ([1]; Huh7, 10% FBS): > 100000 nM | CC50 at 4 days ([1]; Huh7, ATPLite, 4 days): > 100000 nM | EC50 [2, 4]: 15 to 27 nM | EC90 [2, 4]: 128 nM | activity against gT1b HCV relative to Sovaldi ([2]; comparison of EC50/EC90): more than three times more active | solubility at 1 h ([3]; pH 2, aqueous buffer, recrystallized from acetic acid, polycrystal, read-out: Solubility at pH 2): 630 µg/mL (≈ 1160 µM) | solubility at 1 h ([3]; pH 2, aqueous buffer, recrystallized from dimethyl sulfoxide, crystal, read-out: Solubility at pH 2): 180 µg/mL (≈ 332 µM) | solubility at 1 h ([3]; pH 2, aqueous buffer, recrystallized from ethanol, polycrystal, read-out: Solubility at pH 2): 200 µg/mL (≈ 369 µM) | solubility at 1 h ([3]; pH 2, aqueous buffer, recrystallized from ethyl acetate and methyl-tert-butyl ether mixture, polycrystal, read-out: Solubility at pH 2): 250 µg/mL (≈ 462 µM) | solubility at 1 h ([3]; pH 2, aqueous buffer, recrystallized from ethyl acetate, polycrystal, read-out: Solubility at pH 2): 220 µg/mL (≈ 406 µM) | solubility at 1 h ([3]; pH 7, aqueous buffer, recrystallized from acetic acid, polycrystal, read-out: Solubility at pH 7): 670 µg/mL (≈ 1240 µM) | solubility at 1 h ([3]; pH 7, aqueous buffer, recrystallized from dimethyl sulfoxide, crystal, read-out: Solubility at pH 7): 180 µg/mL (≈ 332 µM) | solubility at 1 h ([3]; pH 7, aqueous buffer, recrystallized from ethanol, polycrystal, read-out: Solubility at pH 7): 200 µg/mL (≈ 369 µM) | solubility at 1 h ([3]; pH 7, aqueous buffer, recrystallized from ethyl acetate and methyl-tert-butyl ether mixture, polycrystal, read-out: Solubility at pH 7): 240 µg/mL (≈ 443 µM) | solubility at 1 h ([3]; pH 7, aqueous buffer, recrystallized from ethyl acetate, polycrystal, read-out: Solubility at pH 7): 220 µg/mL (≈ 406 µM)
